Source: the supplement of paper PMC10307832

How the values were obtained:
Assay in all cases: relative viability (nuclei count vs DMSO), 5 days (fraction); higher = more cells survive
NCI-H647 = tested on: NCI-H647
Method in brief: (§1)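 Nuclei were stained with Hoechst during a one-step fixation (final 0.05% Triton X-100, 1% formaldehyde, 1 ug/ml Hoechst) carried out 5 days after dosing, then counted on 4× images. The cells, lung cancer lines in 1536-well plates, had been dosed by pin tool the day after seeding with one drug alone or a fixed anchor-drug dose plus five library-drug doses (not always all listed) in √10 steps. Relative viability is the nuclei count in treated wells divided by that in vehicle wells, and each value is the median of duplicate plates.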

COR-L 105 = tested on: COR-L 105
Method in brief: as §1

NCI-H2087 = tested on: NCI-H2087
Method in brief: as §1

NCI-H520 = tested on: NCI-H520
Method in brief: as §1

LC-2-ad = tested on: LC-2-ad
Method in brief: as §1

NCI-H23 = tested on: NCI-H23
Method in brief: as §1

HCC-78 = tested on: HCC-78
Method in brief: as §1

RERF-LC-KJ = tested on: RERF-LC-KJ
Method in brief: as §1

HCC-827 = tested on: HCC-827
Method in brief: as §1

EPLC-272H = tested on: EPLC-272H
Method in brief: as §1

NCI-H2347 = tested on: NCI-H2347
Method in brief: as §1

PC-14 = tested on: PC-14
Method in brief: as §1

NCI-H650 = tested on: NCI-H650
Method in brief: as §1

NCI-H2126 = tested on: NCI-H2126
Method in brief: as §1

NCI-H1915 = tested on: NCI-H1915
Method in brief: as §1

ChaGo-K-1 = tested on: ChaGo-K-1
Method in brief: as §1

NCI-H2405 = tested on: NCI-H2405
Method in brief: as §1

201T = tested on: 201T
Method in brief: as §1

LCLC-97TM1 = tested on: LCLC-97TM1
Method in brief: as §1

NCI-H661 = tested on: NCI-H661
Method in brief: as §1

NCI-H1666 = tested on: NCI-H1666
Method in brief: as §1

H3255 = tested on: H3255
Method in brief: as §1

SMILES: O=c1cc(N2CCOCC2)oc2c(-c3cccc4c3sc3ccccc34)cccc12 + CC(=O)Nc1cccc(-n2c(=O)n(C3CC3)c(=O)c3c(Nc4ccc(I)cc4F)n(C)c(=O)c(C)c32)c1 [Trametinib] (partner 0.02 µM)
- relative viability (NCI-H647; first compound 0.01 µM): 0.503
- relative viability (NCI-H647; first compound 0.03162 µM): 0.489
- relative viability (NCI-H647; first compound 0.1 µM): 0.487
- relative viability (NCI-H647; first compound 0.3162 µM): 0.449
- relative viability (NCI-H647; first compound 1 µM): 0.472
- relative viability (COR-L 105; first compound 0.01 µM): 0.414
- relative viability (COR-L 105; first compound 0.03162 µM): 0.427
- relative viability (COR-L 105; first compound 0.1 µM): 0.446
- relative viability (COR-L 105; first compound 0.3162 µM): 0.451
- relative viability (COR-L 105; first compound 1 µM): 0.429
- relative viability (NCI-H2087; first compound 0.01 µM): 0.225
- relative viability (NCI-H2087; first compound 0.03162 µM): 0.195
- relative viability (NCI-H2087; first compound 0.1 µM): 0.231
- relative viability (NCI-H2087; first compound 0.3162 µM): 0.188
- relative viability (NCI-H2087; first compound 1 µM): 0.214
- relative viability (NCI-H520; first compound 0.01 µM): 1.14
- relative viability (NCI-H520; first compound 0.03162 µM): 0.594
- relative viability (NCI-H520; first compound 0.1 µM): 0.768
- relative viability (NCI-H520; first compound 0.3162 µM): 0.717
- relative viability (NCI-H520; first compound 1 µM): 0.732
- relative viability (LC-2-ad; first compound 0.01 µM): 0.982
- relative viability (LC-2-ad; first compound 0.03162 µM): 0.877
- relative viability (LC-2-ad; first compound 0.1 µM): 0.965
- relative viability (LC-2-ad; first compound 0.3162 µM): 0.899
- relative viability (LC-2-ad; first compound 1 µM): 0.918
- relative viability (NCI-H23; first compound 0.01 µM): 0.351
- relative viability (NCI-H23; first compound 0.03162 µM): 0.375
- relative viability (NCI-H23; first compound 0.3162 µM): 0.359
- relative viability (NCI-H23; first compound 1 µM): 0.347
- relative viability (HCC-78; first compound 0.01 µM): 0.801
- relative viability (HCC-78; first compound 0.03162 µM): 0.699
- relative viability (HCC-78; first compound 0.1 µM): 0.899
- relative viability (HCC-78; first compound 0.3162 µM): 0.806
- relative viability (HCC-78; first compound 1 µM): 0.651
- relative viability (RERF-LC-KJ; first compound 0.01 µM): 0.824
- relative viability (RERF-LC-KJ; first compound 0.03162 µM): 0.874
- relative viability (RERF-LC-KJ; first compound 0.1 µM): 0.936
- relative viability (RERF-LC-KJ; first compound 0.3162 µM): 0.836
- relative viability (RERF-LC-KJ; first compound 1 µM): 0.798
- relative viability (HCC-827; first compound 0.01 µM): 0.528
- relative viability (HCC-827; first compound 0.03162 µM): 0.508
- relative viability (HCC-827; first compound 0.1 µM): 0.547
- relative viability (HCC-827; first compound 0.3162 µM): 0.504
- relative viability (HCC-827; first compound 1 µM): 0.525
- relative viability (EPLC-272H; first compound 0.01 µM): 0.301
- relative viability (EPLC-272H; first compound 0.03162 µM): 0.285
- relative viability (EPLC-272H; first compound 0.1 µM): 0.333
- relative viability (EPLC-272H; first compound 0.3162 µM): 0.284
- relative viability (EPLC-272H; first compound 1 µM): 0.279
- relative viability (NCI-H2347; first compound 0.01 µM): 0.263
- relative viability (NCI-H2347; first compound 0.03162 µM): 0.287
- relative viability (NCI-H2347; first compound 0.1 µM): 0.269
- relative viability (NCI-H2347; first compound 0.3162 µM): 0.309
- relative viability (NCI-H2347; first compound 1 µM): 0.229
- relative viability (PC-14; first compound 0.01 µM): 0.843
- relative viability (PC-14; first compound 0.03162 µM): 0.744
- relative viability (PC-14; first compound 0.1 µM): 0.745
- relative viability (PC-14; first compound 0.3162 µM): 0.775
- relative viability (PC-14; first compound 1 µM): 0.832
- relative viability (NCI-H650; first compound 0.01 µM): 1.05
- relative viability (NCI-H650; first compound 0.03162 µM): 1.1
- relative viability (NCI-H650; first compound 0.3162 µM): 0.939
- relative viability (NCI-H650; first compound 1 µM): 1.04
- relative viability (NCI-H2126; first compound 0.01 µM): 0.543
- relative viability (NCI-H2126; first compound 0.03162 µM): 0.52
- relative viability (NCI-H2126; first compound 0.1 µM): 0.54
- relative viability (NCI-H2126; first compound 0.3162 µM): 0.567
- relative viability (NCI-H2126; first compound 1 µM): 0.569
- relative viability (NCI-H1915; first compound 0.01 µM): 0.32
- relative viability (NCI-H1915; first compound 0.03162 µM): 0.32
- relative viability (NCI-H1915; first compound 0.1 µM): 0.299
- relative viability (NCI-H1915; first compound 0.3162 µM): 0.3
- relative viability (NCI-H1915; first compound 1 µM): 0.3
- relative viability (ChaGo-K-1; first compound 0.01 µM): 0.845
- relative viability (ChaGo-K-1; first compound 0.03162 µM): 0.958
- relative viability (ChaGo-K-1; first compound 0.1 µM): 0.966
- relative viability (ChaGo-K-1; first compound 0.3162 µM): 0.893
- relative viability (ChaGo-K-1; first compound 1 µM): 0.882
- relative viability (NCI-H2405; first compound 0.01 µM): 0.751
- relative viability (NCI-H2405; first compound 0.03162 µM): 0.664
- relative viability (NCI-H2405; first compound 0.1 µM): 0.631
- relative viability (NCI-H2405; first compound 0.3162 µM): 0.686
- relative viability (NCI-H2405; first compound 1 µM): 0.665
- relative viability (201T; first compound 0.01 µM): 0.708
- relative viability (201T; first compound 0.03162 µM): 0.683
- relative viability (201T; first compound 0.1 µM): 0.69
- relative viability (201T; first compound 0.3162 µM): 0.721
- relative viability (201T; first compound 1 µM): 0.701
- relative viability (LCLC-97TM1; first compound 0.01 µM): 0.197
- relative viability (LCLC-97TM1; first compound 0.03162 µM): 0.161
- relative viability (LCLC-97TM1; first compound 0.1 µM): 0.173
- relative viability (LCLC-97TM1; first compound 0.3162 µM): 0.173
- relative viability (LCLC-97TM1; first compound 1 µM): 0.193
- relative viability (NCI-H661; first compound 0.01 µM): 0.541
- relative viability (NCI-H661; first compound 0.03162 µM): 0.587
- relative viability (NCI-H661; first compound 0.1 µM): 0.674
- relative viability (NCI-H661; first compound 0.3162 µM): 0.581
- relative viability (NCI-H661; first compound 1 µM): 0.603
- relative viability (NCI-H1666; first compound 0.01 µM): 0.882
- relative viability (NCI-H1666; first compound 0.03162 µM): 0.829
- relative viability (NCI-H1666; first compound 0.1 µM): 0.84
- relative viability (NCI-H1666; first compound 0.3162 µM): 0.814
- relative viability (NCI-H1666; first compound 1 µM): 0.849
- relative viability (H3255; first compound 0.01 µM): 0.548
- relative viability (H3255; first compound 0.03162 µM): 0.691
- relative viability (H3255; first compound 0.1 µM): 0.675
- relative viability (H3255; first compound 0.3162 µM): 0.703
- relative viability (H3255; first compound 1 µM): 0.552
